Data from patent publication US7125559B2, “Cosmetic or dermatological composition comprising a combination of an elastase inhibitor of the N-acylaminoamide family and at least one myorelaxing agent” (L'Oreal, priority 2001, dated 2006).

Assays:
[1] = biological target: T1, human leukocyte elastase (HLE) (Homo sapiens, UniProt P08246); experiment: anti-elastase activity in vitro against human leukocyte elastase (HLE), substrate Me-OSAAPV-p-NA, spectrophotometry; format: biochemical
T1 sequence (P08246 30-267): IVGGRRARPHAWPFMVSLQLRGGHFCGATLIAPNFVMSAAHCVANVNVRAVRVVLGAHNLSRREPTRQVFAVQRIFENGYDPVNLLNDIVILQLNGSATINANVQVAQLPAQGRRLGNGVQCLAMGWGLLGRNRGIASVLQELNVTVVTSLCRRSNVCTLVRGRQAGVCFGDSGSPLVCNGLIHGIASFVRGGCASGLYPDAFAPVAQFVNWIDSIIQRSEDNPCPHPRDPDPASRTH
Protocol: The anti-elastase activity of compounds according to the invention was determined in vitro against human leukocyte elastase (HLE)
(§1) The test was performed in the following manner:
A substrate Me-OSAAPV-p-NA (methyl-O-succinate alanine alanine proline valine-p-nitroanilide) to which is added the HLE (40 milliunits per ml) and 0.1% of the test compound is incubated at 37° C. for 60 minutes.
The % of inhibition of the elastase activity tested is then determined by spectrophotometry.
In the same manner the % of inhibition of the control elastase activity was determined for the compound A at different concentrations

[2] = tested on: surviving human skins treated with human leukocyte elastase (HLE); experiment: ex vivo activity on human skin fragments kept in survival 10 days with HLE, morphometry of elastin fibres (Example 5); settings: three donors, mean; HLE 0.5 μg/ml + 5 μl compound at 0.2% in ethanol every two days, 10 days at 37° C.; HLE alone 5.1%, untreated 7.4%
Protocol: (§2) The ex vivo activity of the compound of Example 2 was evaluated on surviving human skins treated with human leukocyte elastase (HLE).
as §1
(§3) Fragments of normal human skin derived from three different donors are deposited in inserts placed in culture wells. Culture medium supplemented with antibiotics is added to the bottom of the wells. Passage by slow diffusion occurs between the two compartments through the intermediary of a porous membrane (pore size: 12 μm).
(§4) The culture medium is renewed every three days.
Optionally 0.5 μg of HLE per ml of culture medium is added to the skin fragments.
5 μl of test compound previously dissolved at 0.2% by weight in ethanol are also added every two days.
The skins are maintained in survival for 10 days at 37° C.,
(§5) The elastin fibres are stained blue with (+) catechol and quantified morphometrically by computer-assisted image analysis. The mean percentage dermal surface area occupied by the elastin fibres was thus evaluated.

[3] = tested on: surviving human skins irradiated by UVA; experiment: activity on surviving human skins irradiated by UVA (8 J/cm2), morphometry of elastin fibres and collagen (Example 6); settings: UVA 8 J/cm2 + 5 μl compound at 0.2% in ethanol every two days, 7 days at 37° C.
Protocol: The activity of the compound of Example 2 was evaluated on irradiated surviving human skins irradiated by UVA (8 J/cm2).
(§6) The test is performed in the following manner:
as §3, with “four” for “three”
as §4
Every two days 5 μl of the test compound previously dissolved at 0.2% in ethanol are added to the skin fragments.
The skins are maintained in survival for 7 days at 37° C.
The skins are irradiated once only at 8 J/cm2 (Vilbert-Lourmat RMX-3W lamp).
as §5

[4] = tested on: surviving human skins treated with human leukocyte elastase (HLE); experiment: ex vivo activity on fresh sections of surviving human skins treated with HLE, morphometry of elastin fibres (Example 4); settings: HLE 10 μg/ml + 0.1% test compound, 2 hours at 20° C.
Protocol: as §2, §6
Fresh sections of human skins derived from 2 different donors are treated for 2 hours at 20° C. with 20 μl of buffer solution (pH 7.4) containing optionally 10 μg/ml of HLE and optionally 0.1% of the test compound, optionally previously dissolved in ethanol.
The elastin fibres are stained blue with (+) catechol and quantified morphometrically by computer-assisted image analysis. The percentage of mean dermal surface occupied by the elastin fibres is thus evaluated

| Structure (SMILES) | inhibition of the elastase activity (in words) ([1]; even at low concentration) | % surface occupied by elastin fibres [2] | Morphometric analysis of elastin fibres (superficial dermis) ([3]; UVA alone 3.9%, untreated 6.75%) | Morphometric analysis of collagen (superficial dermis) ([3]; UVA alone 81%, untreated 87%) | % surface occupied by elastin fibres ([4]; Skin 1, HLE alone 4.85%, untreated 12.7%) | % surface occupied by elastin fibres ([4]; Skin 2, HLE alone 6.85%, untreated 15.25%) | % inhibition of elastase activity tested ([1]; compound concentration 0.1%, HLE 40 milliunits per ml, 37° C., 60 minutes) |
| --- | --- | --- | --- | --- | --- | --- | --- |
| CC(=O)N(c1cccc(C(F)(F)F)c1)C(C(=O)NCC(=O)O)C(C)C (stereo not shown) [Compound A, {2-[acetyl-(3-trifluoromethyl-phenyl)-amino]-3-methyl-butyrylamino}acetic acid] | strong inhibition | 7.1% | 6.8% | 92% | 13.95% | 11.85% | – |
| CCOC(=O)CNC(=O)C(C(C)C)N(Cc1ccccc1)C(=O)CP(=O)(OCC)OCC (stereo not shown) [Compound B, (2-{benzyl-[(diethoxy-phosphoryl)-acetyl]-amino}-3-methyl-butyrylamino) ethyl acetate] | – | – | – | – | – | – | 17% |
